# Results taken from patent US10087165B2, “Fluoroquinolones and use thereof to treat bacterial infections” (UNIVERSITÉ PIERRE ET MARIE CURIE—PARIS 6 (UPMC), priority 2014, dated 2018).
# Read-outs that look alike come from different tables or passages of the source.
# Legend:
# [1] = Acute toxicity in healthy female CD-1 mice after a single oral treatment; assay type: in vivo; settings: for Macroscopic autopsy: Observations: sacrifice at end of study
# Protocol: The aim of this study was to evaluate the acute toxicity of two new compounds (Quin 18 and Quin 19) in healthy female CD-1 after a single oral treatment at D0.
# Toxicity of treatment was evaluated by monitoring of animals (general signs of pharmacologic and toxicity effects, morbidity, mortality and evident signs of toxicity, as well as twice-weekly monitoring for clinical signs and body weight) until the end of the experiment (D14). At the end of the experiment, animals were sacrificed and macroscopic autopsy was performed.
# Mice of each group were administered by per os (PO) injection at 10 ml/kg according to the standard operating procedure No. TEC-078. The recommended volume for per os (PO) administration in mice is 10 ml/kg.
# Morbidity, mortality and evident signs of toxicity of mice were considered daily from D0 until the end of the experiment (D14 or D15).
# Monitoring of mice for detailed behavioral and clinical observations was performed twice a week from D0 until the end of the experiment (D14 or D15) according to the standard operating procedures No. TEC-192.
# Body weight of mice was monitored at D1, D2 and then twice a week until the end of the experiment (D14 or D15) according to the standard operating procedures No. TEC-108. Weight loss was assessed against the starting weight of each mouse at D0.
# During the course of the experiment, animals were sacrificed if any of the following occurs: • Signs of suffering (cachexia, weakening, difficulty to move or to eat), • Compound toxicity (hunching, convulsions), • 25% body weight loss on any day. Sacrifice of Animals
# At D14 or D15, animals were be sacrificed by CO2 inhalation and a macroscopic autopsy was performed.
# M. tuberculosis H37Rv = assay: microbe, parasite or virus in culture; assay type: cell-based; settings: for MIC: Mycobacterium tuberculosis
# [2] = system: M. tuberculosis H37Rv strain; assay: Minimal effective dosage in the murine TB model; assay type: in vivo, Balb/C/J female mice; design: Mice weight: unit not given here; settings: for Survival: No. death: 10 mice
# Protocol: Four-week-old Balb/C/J female mice were infected intravenously with 10^6 CFU of M. tuberculosis H37Rv strain. On the day following the infection (D1), 10 mice were sacrificed to determine the exact baseline values of spleen weight and CFU counts in the lungs. The remaining mice were allocated to the following treatment groups: an untreated negative control group for survival monitoring, a positive control group treated for 1 month with isoniazid (INH) 25 mg/kg/d, […] test groups were treated with Quin18 and Quin19 at increasing dosages (25 mg/kg/d; 50 mg/kg/d; 100 mg/kg/d; 150 mg/kg/d) given by oral gavage, and two additional test groups were treated intravenously with Quin18 25 mg/kg/d and 100 mg/kg/d. All the groups contained 10 mice and were treated from D1 to D28, 5 days a week. The parameters used for assessing the severity of infection and the effectiveness of treatments were survival rate, spleen weight, gross lung lesions and CFU counts in the lungs.
# The minimal effective dosage was defined as the minimal dosage able to prevent mortality of the mice, spleen enlargement and the occurrence of gross lung lesions. CFU counts were considered to be a more precise way of determining the dose-ranging efficacy of Quin18 and Quin19.
# Survival rates between groups were plotted on a Kaplan-Meier curve and compared using the log-rank test.
# [3] = biological target: M. tuberculosis DNA gyrase (Mycobacterium tuberculosis, UniProt P9WG45+P9WG47); assay: biochemical
# M. tuberculosis DNA gyrase, sequence (P9WG47 whole entry): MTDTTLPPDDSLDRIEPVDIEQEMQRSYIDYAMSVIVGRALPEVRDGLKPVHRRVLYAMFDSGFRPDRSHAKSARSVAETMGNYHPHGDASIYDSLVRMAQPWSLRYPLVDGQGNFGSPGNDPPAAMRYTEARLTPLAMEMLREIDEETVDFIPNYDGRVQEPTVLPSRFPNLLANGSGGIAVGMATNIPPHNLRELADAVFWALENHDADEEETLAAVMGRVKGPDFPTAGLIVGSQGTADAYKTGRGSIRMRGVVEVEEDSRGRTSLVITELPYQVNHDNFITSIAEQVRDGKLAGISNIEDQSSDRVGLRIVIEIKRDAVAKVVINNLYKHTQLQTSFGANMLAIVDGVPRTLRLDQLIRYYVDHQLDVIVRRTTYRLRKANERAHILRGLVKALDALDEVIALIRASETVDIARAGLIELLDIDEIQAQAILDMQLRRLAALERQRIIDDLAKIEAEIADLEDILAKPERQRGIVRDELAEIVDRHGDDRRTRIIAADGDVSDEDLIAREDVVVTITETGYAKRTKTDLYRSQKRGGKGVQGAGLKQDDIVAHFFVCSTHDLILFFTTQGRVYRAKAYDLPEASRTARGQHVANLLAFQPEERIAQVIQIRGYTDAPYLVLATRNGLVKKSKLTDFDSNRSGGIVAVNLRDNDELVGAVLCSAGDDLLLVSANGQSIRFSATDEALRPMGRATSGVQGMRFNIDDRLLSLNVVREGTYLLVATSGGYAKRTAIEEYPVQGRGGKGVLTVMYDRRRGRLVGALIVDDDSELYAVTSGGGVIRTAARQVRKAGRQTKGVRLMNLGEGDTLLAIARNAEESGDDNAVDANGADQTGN
# M. tuberculosis DNA gyrase, sequence (P9WG45 whole entry): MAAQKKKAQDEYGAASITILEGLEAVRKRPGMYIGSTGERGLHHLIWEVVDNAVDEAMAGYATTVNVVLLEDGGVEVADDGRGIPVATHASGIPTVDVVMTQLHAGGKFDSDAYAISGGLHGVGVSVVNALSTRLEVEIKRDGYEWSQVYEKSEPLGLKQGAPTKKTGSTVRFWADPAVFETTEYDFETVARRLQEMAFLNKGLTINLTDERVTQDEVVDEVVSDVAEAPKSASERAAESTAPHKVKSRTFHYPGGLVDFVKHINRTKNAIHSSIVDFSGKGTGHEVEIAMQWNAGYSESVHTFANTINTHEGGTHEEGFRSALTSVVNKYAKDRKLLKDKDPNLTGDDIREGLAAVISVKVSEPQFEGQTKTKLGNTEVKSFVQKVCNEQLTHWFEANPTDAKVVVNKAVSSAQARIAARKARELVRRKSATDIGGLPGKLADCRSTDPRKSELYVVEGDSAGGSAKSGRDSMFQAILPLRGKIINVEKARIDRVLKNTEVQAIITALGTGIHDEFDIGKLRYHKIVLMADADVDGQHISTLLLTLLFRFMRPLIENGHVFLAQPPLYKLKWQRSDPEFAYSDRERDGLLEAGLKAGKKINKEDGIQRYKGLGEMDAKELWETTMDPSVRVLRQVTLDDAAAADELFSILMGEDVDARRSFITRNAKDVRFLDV
structure (smiles),measurement,setting,value
"CCCCCCCCN1CCN(c2c(F)cc3c(=O)c(C(=O)O)cn(C4CC4)c3c2OC)CC1 [Quin 18, 1-cyclopropyl-6-fluoro-8-methoxy-7-(4-octylpiperazin-1-yl)-4-oxo-1,4-dihydroquinoline-3-carboxylic acid]",Loss of body weight (in words),[1]; Group A1: 100 mg/kg PO Q1Dx1,did not exhibited any loss of body weight
same,Tolerance (in words),"[1]; Group A1: 100 mg/kg PO Q1Dx1, polysorbate 80 0.4%, with sonication",well tolerated
same,Mean body weight (MBW),"[1]; Group A1: 100 mg/kg PO Q1Dx1, with sonication, D1",31.33 ± 0.8 g
same,Mean body weight (MBW),"[1]; Group A1: 100 mg/kg PO Q1Dx1, with sonication, D2",31.2 ± 0.7 g
same,Mean body weight (MBW),"[1]; Group A1: 100 mg/kg PO Q1Dx1, with sonication, D3",30.3 ± 0.53 g
same,Mean body weight (MBW),"[1]; Group A1: 100 mg/kg PO Q1Dx1, with sonication, D4",30.47 ± 0.78 g
same,Mean body weight (MBW),"[1]; Group A1: 100 mg/kg PO Q1Dx1, with sonication, D7",31.63 ± 0.49 g
same,Mean body weight (MBW),"[1]; Group A1: 100 mg/kg PO Q1Dx1, with sonication, D11",32.3 ± 1.37 g
same,Mean body weight (MBW),"[1]; Group A1: 100 mg/kg PO Q1Dx1, with sonication, D14",31.77 ± 0.76 g
same,Macroscopic autopsy: Observations,[1]; Group A1: 100 mg/kg PO Q1Dx1,NTR
same,Mean body weight (MBW),"[1]; Group A1: polysorbate 80 0.4%, 10 mg/ml with sonication, 100 mg/kg PO Q1Dx1, D0, 100 mg/kg",31.5 ± 1.48 g
same,Loss of body weight (in words),[1]; Group A2: 200 mg/kg PO Q1Dx1,did not exhibited any loss of body weight
same,Tolerance (in words),"[1]; Group A2: 200 mg/kg PO Q1Dx1, polysorbate 80 0.4%, with sonication",well tolerated
same,Mean body weight (MBW),"[1]; Group A2: 200 mg/kg PO Q1Dx1, with sonication, D1",31.13 ± 1.01 g
same,Mean body weight (MBW),"[1]; Group A2: 200 mg/kg PO Q1Dx1, with sonication, D2",30.27 ± 0.74 g
same,Mean body weight (MBW),"[1]; Group A2: 200 mg/kg PO Q1Dx1, with sonication, D3",30.7 ± 0.44 g
same,Mean body weight (MBW),"[1]; Group A2: 200 mg/kg PO Q1Dx1, with sonication, D7",31.67 ± 0.49 g
same,Mean body weight (MBW),"[1]; Group A2: 200 mg/kg PO Q1Dx1, with sonication, D10",31.73 ± 0.95 g
same,Mean body weight (MBW),"[1]; Group A2: 200 mg/kg PO Q1Dx1, with sonication, D14",32.6 ± 1.35 g
same,Macroscopic autopsy: Observations,[1]; Group A2: 200 mg/kg PO Q1Dx1,NTR
same,Mean body weight (MBW),"[1]; Group A2: polysorbate 80 0.4%, 20 mg/ml with sonication, 200 mg/kg PO Q1Dx1, D0, 200 mg/kg",30.2 ± 1.15 g
same,Loss of body weight (in words),[1]; Group A3: 100 mg/kg PO Q1Dx1,did not exhibited any loss of body weight
same,Tolerance (in words),"[1]; Group A3: 100 mg/kg PO Q1Dx1, polysorbate 80 0.4%",well tolerated
same,Mean body weight (MBW),"[1]; Group A3: 100 mg/kg PO Q1Dx1, without sonication, D1",29.8 ± 1.05 g
same,Mean body weight (MBW),"[1]; Group A3: 100 mg/kg PO Q1Dx1, without sonication, D2",30.4 ± 1.25 g
same,Mean body weight (MBW),"[1]; Group A3: 100 mg/kg PO Q1Dx1, without sonication, D4",30 ± 1.01 g
same,Mean body weight (MBW),"[1]; Group A3: 100 mg/kg PO Q1Dx1, without sonication, D7",31.33 ± 0.74 g
same,Mean body weight (MBW),"[1]; Group A3: 100 mg/kg PO Q1Dx1, without sonication, D11",32.3 ± 2.02 g
same,Mean body weight (MBW),"[1]; Group A3: 100 mg/kg PO Q1Dx1, without sonication, D15",32.17 ± 1.94 g
same,Macroscopic autopsy: Observations,[1]; Group A3: 100 mg/kg PO Q1Dx1,NTR
same,Mean body weight (MBW),"[1]; Group A3: polysorbate 80 0.4%, 10 mg/ml without sonication, 100 mg/kg PO Q1Dx1, D0, 100 mg/kg",29.9 ± 1.25 g
same,Loss of body weight (in words),[1]; Group A4: 200 mg/kg PO,did not exhibited any loss of body weight
same,Mean body weight (MBW),"[1]; Group A4: 200 mg/kg PO 2Q1Dx1, without sonication, D1",29.73 ± 1.22 g
same,Mean body weight (MBW),"[1]; Group A4: 200 mg/kg PO 2Q1Dx1, without sonication, D2",30.2 ± 1.31 g
same,Mean body weight (MBW),"[1]; Group A4: 200 mg/kg PO 2Q1Dx1, without sonication, D5",30 ± 1.45 g
same,Mean body weight (MBW),"[1]; Group A4: 200 mg/kg PO 2Q1Dx1, without sonication, D9",30.93 ± 3.04 g
same,Mean body weight (MBW),"[1]; Group A4: 200 mg/kg PO 2Q1Dx1, without sonication, D13",31.73 ± 2.64 g
same,Mean body weight (MBW),"[1]; Group A4: 200 mg/kg PO 2Q1Dx1, without sonication, D14",31.33 ± 1.63 g
same,Macroscopic autopsy: Observations,[1]; Group A4: 200 mg/kg PO 2Q1Dx1,NTR
same,Tolerance (in words),"[1]; Group A4: 200 mg/kg PO, polysorbate 80 0.4%",well tolerated
same,Mean body weight (MBW),"[1]; Group A4: polysorbate 80 0.4%, 10 mg/ml without sonication, 200 mg/kg PO 2Q1Dx1 (2 hours between the 2 injections), D0, 200 mg/kg",29.5 ± 0.89 g
same,"Autopsy, macroscopic observations (in words)",[1]; all treated groups,No particular sign was observed
same,Dose up to which well tolerated (maximal solubility),"[1]; in polysorbate 80 0.4%, PO, female mice",up to 200 mg/kg
same,Signs of toxicity at the dose levels tested (in words),[1]; mice,no signs of toxicity
same,antibacterial activity against wild-type M. tuberculosis strain (in words),M. tuberculosis H37Rv; H37Rv,high antibacterial activity
same,MIC,"M. tuberculosis H37Rv; H37RV, Table 3, read-out: MIC M. tuberculosis H37Rv",0.12 µM
same,MIC,"M. tuberculosis H37Rv; H37Rv, Table 2, read-out: MIC (M. tuberculosis) WT",≤ 0.12 µM
same,Mice weight,"[2]; 25 mg/kg/j, Gavage",19.4 ± 0.9
same,Spleen weight,"[2]; 25 mg/kg/j, Gavage",258.6 ± 155 mg
same,Survival: No. death,"[2]; 25 mg/kg/j, Gavage, D1 to D28, 5 days a week",0
same,Mice weight,"[2]; 25 mg/kg/j, Intravenously",20 ± 1
same,Spleen weight,"[2]; 25 mg/kg/j, Intravenously",391 ± 89.7 mg
same,Survival: No. death,"[2]; 25 mg/kg/j, Intravenously",0
same,Mice weight,"[2]; 50 mg/kg/j, Gavage",20 ± 1.6
same,Spleen weight,"[2]; 50 mg/kg/j, Gavage",231 ± 63.3 mg
same,Survival: No. death,"[2]; 50 mg/kg/j, Gavage",0
same,Mice weight,"[2]; 100 mg/kg/j, Gavage",19.4 ± 1.5
same,Spleen weight,"[2]; 100 mg/kg/j, Gavage",210 ± 104.1 mg
same,Survival: No. death,"[2]; 100 mg/kg/j, Gavage",0
same,Mice weight,"[2]; 100 mg/kg/j, Intravenously",20 ± 1.1
same,Spleen weight,"[2]; 100 mg/kg/j, Intravenously",400 ± 7.7 mg
same,Survival: No. death,"[2]; 100 mg/kg/j, Intravenously",1
same,Mice weight,"[2]; 150 mg/kg/j, Gavage",20.3 ± 0.8
same,Spleen weight,"[2]; 150 mg/kg/j, Gavage",239.8 ± 129.3 mg
same,Survival: No. death,"[2]; 150 mg/kg/j, Gavage",0
same,Efficacy in a mouse model of tuberculosis (in words),[2]; given orally,outstanding efficacy
same,Spleen weights compared with untreated group (in words),[2]; treated intravenously,spleen weights similar than the untreated group
same,Survival compared with untreated group (in words),"[2]; whatever the dosage (25, 50, 100 and 150 mg/kg/d) and the administration route",statistically superior to untreated group
same,IC50,[3],195 µM
